Measurements from publication PMC6152180, “Design, Synthesis and Evaluation of Hesperetin Derivatives as Potential Multifunctional Anti-Alzheimer Agents” (Molecules : A Journal of Synthetic Chemistry and Natural …, 2017).
Where two headings read alike, the source gives them in different places.

Legend:
in vitro = conditions: human
Protocol: Thus, we used the methylthiazolyl tetrazolium (MTT) method [30] to perform a neurocyte (SH-SY5Y) toxicity test in vitro.
The SH-SY5Y cell line was seeded on 96-well plates at a density of 10^4 cells/well. […] Subsequently, 10 μL of 5 mg/mL MTT solution was added to each well and further incubated for 4 h at 37 °C. The solution was carefully removed, and each well was treated with DMSO (200 μL for each well). The optical density of the wells was then read on the microplate reader at 570 nm. All the tested compounds were performed in triplicate.

[1] = Oxygen radical absorbance capacity-fluorescein (ORAC-FL) assay; conditions: Trolox equivalents, Trolox = 1
Protocol: Vitamin E analogue Trolox was used as the standard, and the results were expressed as Trolox equivalents.
The anti-oxidation activity was tested by using the oxygen radical absorbance capacity-fluorescein (ORAC-FL) assay [25, 32]. All the ORAC-assays measure antioxidant scavenging activity against peroxyl radical induced by 2,2′-azobis (2-amidinopropane) dihydrochloride (AAPH) at 37 °C.
The reaction was conducted with 75 mM phosphate buffer (pH 7.4) and the final reaction mixture was 200 μL. Fluorescein (120 μL, 300 nM final concentration) and antioxidant (20 μL) were placed in the wells of a black 96-well plate, and the mixture was incubated for 15 min at 37 °C. Then AAPH solution (60 μL, 12 mM final concentration) was added rapidly. […] 6-hydroxy-2,5,7,8-tetramethylchroman-2-carboxylic acid (Trolox) was used as a standard (1–5 μM, final concentration). A blank (FL + AAPH) using phosphate buffer instead of antioxidant and Trolox calibration were carried out in each assay. The samples were measured at different concentrations (1–5 μM), and at least three independent assays were performed for each sample. Fluorescence measurements were normalized based on the curve of the blank (without antioxidant). Antioxidant curves (fluorescence versus time) were normalized to the curve of the blank in the same assay, and then the area under the fluorescence decay curve (AUC) was calculated. The net AUC of a sample was obtained by subtracting the AUC from the blank. ORAC-FL values were expressed as Trolox equivalents by using the standard curve calculated for each sample, where the ORAC-FL value of Trolox was taken as one, indicating the antioxidant potency of the test compounds.

BuChE = target: T1, BuChE (Equus caballus, UniProt P81908); assay: biochemical
T1 construct: purchased Aladdin B128570-2KU; host or cells: equine serum
Protocol: (§1) Acetylcholinesterase (AChE, E.C. 3.1.1.7, obtained from electric eel) was purchased from Sigma-Aldrich (St. Louis, MO, USA, product code: C3389-2KU). Butyrylcholinesterase (BuChE, E.C. 3.1.1.8, obtained from equine serum) was purchased from Aladdin (Shanghai, China, product code: B128570-2KU). […] The compounds were dissolved in a minimum volume of DMSO (1%) and then diluted in 0.1 M KH2PO4/K2HPO4 buffer (pH 8.0) to provide a final concentration range.
(§2) Enzyme solutions were prepared to give 2.0 units/ mL in 2 mL aliquots. The assay medium contained phosphate buffer, pH 8.0 (1 mL), 50 μL of 0.01 M DTNB, 10 μL of enzyme, and 50 μL of 0.01 M substrate (ATC). The substrate was added to the assay medium containing enzyme, buffer, and DTNB with inhibitor after 15 min of incubation time. […] In vitro BuChE assay used the similar method described above [31]. Each concentration was assayed in triplicate.

AChE = target: T2, AChE (Electrophorus electricus, UniProt O42275); assay: biochemical; conditions: for Selective Index: Selectivity Index = IC50 (BuChE)/IC50 (AChE)
T2 construct: purchased Sigma-Aldrich C3389-2KU
Protocol: as §1, §2

[2] = BuChE from equine serum, means ± SEM of three experiments, read-out: BuChE Inhibition, (IC50)
[3] = AChE from electric eel, means ± SEM of three experiments, read-out: AchE Inhibition, (IC50)

T2 sequence (O42275 24-633): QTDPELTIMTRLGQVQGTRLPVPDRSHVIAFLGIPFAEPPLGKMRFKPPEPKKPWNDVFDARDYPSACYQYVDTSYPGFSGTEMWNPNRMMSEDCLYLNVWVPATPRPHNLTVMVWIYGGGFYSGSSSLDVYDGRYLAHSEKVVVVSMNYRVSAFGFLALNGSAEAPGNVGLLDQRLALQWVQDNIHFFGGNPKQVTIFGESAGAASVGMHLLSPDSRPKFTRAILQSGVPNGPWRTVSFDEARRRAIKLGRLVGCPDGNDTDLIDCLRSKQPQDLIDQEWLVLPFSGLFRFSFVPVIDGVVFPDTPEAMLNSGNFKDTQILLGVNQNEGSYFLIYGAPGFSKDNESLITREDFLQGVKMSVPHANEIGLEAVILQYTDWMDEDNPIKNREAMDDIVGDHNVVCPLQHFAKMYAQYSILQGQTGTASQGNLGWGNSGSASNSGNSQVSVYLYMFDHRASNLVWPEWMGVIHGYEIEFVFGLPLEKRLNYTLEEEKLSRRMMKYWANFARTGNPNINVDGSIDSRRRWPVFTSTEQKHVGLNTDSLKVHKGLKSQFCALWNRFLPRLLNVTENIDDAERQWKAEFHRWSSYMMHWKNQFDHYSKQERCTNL
T1 sequence (P81908 whole entry): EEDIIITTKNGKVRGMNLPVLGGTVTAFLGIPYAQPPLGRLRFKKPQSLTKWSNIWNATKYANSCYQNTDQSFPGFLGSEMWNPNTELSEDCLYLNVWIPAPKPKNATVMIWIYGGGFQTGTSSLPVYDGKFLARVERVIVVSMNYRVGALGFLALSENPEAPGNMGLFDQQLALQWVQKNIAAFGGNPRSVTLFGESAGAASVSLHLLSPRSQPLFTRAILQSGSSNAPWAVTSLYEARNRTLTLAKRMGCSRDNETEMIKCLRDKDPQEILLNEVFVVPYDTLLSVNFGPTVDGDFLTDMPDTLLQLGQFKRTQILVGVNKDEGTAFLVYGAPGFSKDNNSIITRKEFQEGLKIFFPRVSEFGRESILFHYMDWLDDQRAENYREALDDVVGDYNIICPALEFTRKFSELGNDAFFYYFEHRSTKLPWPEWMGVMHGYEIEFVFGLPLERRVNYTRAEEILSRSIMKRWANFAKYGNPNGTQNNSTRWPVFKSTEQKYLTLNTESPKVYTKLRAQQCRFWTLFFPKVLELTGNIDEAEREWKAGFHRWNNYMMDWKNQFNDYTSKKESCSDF

Row | SMILES | viability at 48 h, 1 µM (in vitro) [%] | viability at 48 h, 10 µM (in vitro) [%] | viability at 48 h, 50 µM (in vitro) [%] | viability at 48 h, 100 µM (in vitro) [%] | ORAC [1] | IC50 (BuChE; [2]) [nM] | IC50 (AChE; [3]) [nM] | Selective Index (AChE) | IC50 (BuChE) [nM] | IC50 (AChE) [nM]
1 | COc1ccc(C2CC(=O)c3c(O)cc(OCC(=O)NCc4ccc(Cl)cc4)cc3O2)cc1O (stereo not shown) [Compound 4b, N-(4-Chlorobenzyl)-2-[5-hydroxy-2-(3-hydroxy-4-methoxyphenyl)-4-oxochroman-7-yloxy]-acetamide] | 103 ± 4.56 | 95.9 ± 3.98 | 83.7 ± 4.12 | 65.4 ± 5.33 | 2.7 μM of Trolox equivalent/μMof tested compound | 3500 ± 66 | 13.6 ± 0.78 | 258 | – | –
2 | COc1ccc(C2CC(=O)c3c(O)cc(OCC(=O)NCc4ccc(F)cc4)cc3O2)cc1O (stereo not shown) [Compound 4c, N-(4-Fluorobenzyl)-2-[5-hydroxy-2-(3-hydroxy-4-methoxyphenyl)-4-oxochroman-7-yloxy]-acetamide] | 98.5 ± 4.98 | 97.5 ± 3.76 | 83.8 ± 2.32 | 58.8 ± 3.97 | 2.9 μM of Trolox equivalent/μMof tested compound | 2080 ± 76 | 12.4 ± 0.81 | 167 | – | –
3 | COc1ccc(C2CC(=O)c3c(O)cc(OCC(=O)NCc4ccc(Br)cc4)cc3O2)cc1O (stereo not shown) [Compound 4d, N-(4-Bromobenzyl)-2-[5-hydroxy-2-(3-hydroxy-4-methoxyphenyl)-4-oxochroman-7-yloxy]-acetamide] | 99.9 ± 5.76 | 99.5 ± 6.23 | 86.2 ± 5.14 | 70 ± 4.78 | 2.6 μM of Trolox equivalent/μMof tested compound | 2130 ± 64 | 15.7 ± 0.95 | 136 | – | –
4 | COc1ccc(CNC(=O)COc2cc(O)c3c(c2)OC(c2ccc(OC)c(O)c2)CC3=O)cc1 (stereo not shown) [Compound 4e, 2-[5-Hydroxy-2-(3-hydroxy-4-methoxyphenyl)-4-oxochroman-7-yloxy]-N-(4-methoxy-benzyl)acetamide] | 105 ± 3.87 | 98.3 ± 5.27 | 87.1 ± 6.37 | 66.5 ± 4.95 | 2.8 μM of Trolox equivalent/μMof tested compound | 3210 ± 92 | 17.9 | 179 | – | –
5 | COc1ccc(C2CC(=O)c3c(O)cc(OCC(=O)NCc4ccccc4Cl)cc3O2)cc1O (stereo not shown) [Compound 4g, N-(2-Chlorobenzyl)-2-[5-hydroxy-2-(3-hydroxy-4-methoxyphenyl)-4-oxochroman-7-yloxy]acetamide] | 97.8 ± 6.83 | 95.7 ± 5.67 | 79.3 ± 4.33 | 70.8 ± 5.32 | – | 1630 ± 78 | 14 ± 0.95 | 116 | – | –
6 | COc1ccc(C2CC(=O)c3c(O)cc(OCC(=O)NCc4ccccc4F)cc3O2)cc1O (stereo not shown) [Compound 4h, N-(2-Fluorobenzyl)-2-[5-hydroxy-2-(3-hydroxy-4-methoxyphenyl)-4-oxochroman-7-yloxy]-acetamide] | 100 ± 6.52 | 98.8 ± 5.38 | 75.8 ± 3.83 | 60.6 ± 4.27 | 2.5 μM of Trolox equivalent/μMof tested compound | 2800 ± 39 | 15.2 ± 2.03 | 184 | – | –
7 | COc1ccc(C2CC(=O)c3c(O)cc(OCC(=O)NCc4ccccc4OC)cc3O2)cc1O (stereo not shown) [Compound 4i, 2-[5-Hydroxy-2-(3-hydroxy-4-methoxyphenyl)-4-oxochroman-7-yloxy]-N-(2-methoxy-benzyl)acetamide] | 97.8 ± 6.32 | 96.7 ± 5.21 | 75 ± 4.12 | 55 ± 5.69 | 2.7 μM of Trolox equivalent/μMof tested compound | 1990 ± 134 | 19.2 ± 0.66 | 103 | – | –
8 | COc1cccc(CNC(=O)COc2cc(O)c3c(c2)OC(c2ccc(OC)c(O)c2)CC3=O)c1 (stereo not shown) [Compound 4j, 2-[5-Hydroxy-2-(3-hydroxy-4-methoxyphenyl)-4-oxochroman-7-yloxy]-N-(3-methoxy-benzyl)acetamide] | 103 ± 6.47 | 98.2 ± 7.01 | 84.2 ± 3.2 | 70.8 ± 5.36 | 3.1 μM of Trolox equivalent/μMof tested compound | 2460 ± 83 | 22.3 ± 1.54 | 110 | – | –
9 | COc1ccc(C2CC(=O)c3c(O)cc(OCC(=O)NCCc4ccccc4)cc3O2)cc1O (stereo not shown) [Compound 4k, 2-[5-Hydroxy-2-(3-hydroxy-4-methoxyphenyl)-4-oxochroman-7-yloxy]-N-phenethyl-acetamide] | 98.9 ± 6.3 | 96.5 ± 2.98 | 81 ± 3.22 | 68.5 ± 4.92 | 2.7 μM of Trolox equivalent/μMof tested compound | 3010 ± 74 | 11.9 ± 1.12 | 254 | – | –
10 | COc1ccc(CCNC(=O)COc2cc(O)c3c(c2)OC(c2ccc(OC)c(O)c2)CC3=O)cc1 (stereo not shown) [Compound 4l, 2-[5-Hydroxy-2-(3-hydroxy-4-methoxyphenyl)-4-oxochroman-7-yloxy]-N-[2-(4-methoxy-phenyl)ethyl]acetamide] | 98.9 ± 4.07 | 94.5 ± 5.32 | 78.5 ± 3.21 | 63.2 ± 5.04 | 2.9 μM of Trolox equivalent/μMof tested compound | 2790 ± 53 | 19.5 ± 0.77 | 143 | – | –
11 | COc1ccc(C2CC(=O)c3c(O)cc(OCC(=O)NCCc4ccc(Cl)cc4)cc3O2)cc1O (stereo not shown) [Compound 4m, N-[2-(4-Chlorophenyl)ethyl]-2-[5-hydroxy-2-(3-hydroxy-4-methoxyphenyl)-4-oxo-chroman-7-yloxy]acetamide] | 102 ± 6.65 | 97.3 ± 5.21 | 81.5 ± 4.01 | 64.5 ± 4.32 | 2.6 μM of Trolox equivalent/μMof tested compound | 3350 ± 66 | 15.7 ± 0.85 | 214 | – | –
12 | COc1ccc(C2CC(=O)c3c(O)cc(OCC(=O)NCCc4ccc(F)cc4)cc3O2)cc1O (stereo not shown) [Compound 4o, N-[2-(4-Fluorophenyl)ethyl]-2-[5-hydroxy-2-(3-hydroxy-4-methoxyphenyl)-4-oxochroman-7-yloxy]-acetamide] | 101 ± 6.31 | 97.2 ± 5.09 | 81.7 ± 3.52 | 59.7 ± 6.14 | – | 2260 ± 81 | 13.5 ± 1.44 | 167 | – | –
13 | COc1cc(/C=C/C(=O)CC(=O)/C=C/c2ccc(O)c(OC)c2)ccc1O [Curcumin, curcumin, reference compound] | 95.3 ± 5.21 | 90.9 ± 4.31 | 82.1 ± 3.07 | 71.8 ± 4.21 | – | – | – | – | – | –
14 | COc1ccc([C@@H]2CC(=O)c3c(O)cc(O)cc3O2)cc1O [Hesperetin, hesperetin] | 99 ± 5.87 | 93 ± 4.33 | 85.2 ± 3.43 | 67.3 ± 5.21 | – | – | – | 3 | 2900 ± 67 | 1020 ± 37
15 | Nc1c2c(nc3ccccc13)CCCC2 [Tacrine, tacrine, reference compound] | – | – | – | – | <0.1 μM of Trolox equivalent/μMof tested compound | – | – | – | – | –
